Measurements taken from US10912843B2, “Endoplasmic reticulum-targeting nanovehicles and methods for use thereof” (National Cheng Kung University, priority 2018, dated 2021).

Experiments:
[1] = tested on: differentiated HL-60 cells; experiment: Mitochondrial membrane potential (TMRM, flow cytometry); type: cell-based; details: 10 μM, 24 hours; FIG. 5A
Procedure: As mentioned above, it has been shown that curcumin is cytotoxic, as it induces ER stress and apoptosis. The cytotoxicity of free curcumin was compared to that of encapsulated curcumin by measuring in treated cells mitochondrial membrane potential (one measure of cytotoxicity), apoptotic markers, and ER stress-related protein expression.
(§1) Differentiated HL-60 cells were treated with 0.5 μM or 10 μM free curcumin, curcumin-loaded PLGA nanoparticles, or curcumin-loaded ER-targeted PLGA nanoparticles for 24 hours. Treated cells were labeled with 250 nM of the mitochondrial membrane potential indicator dye tetramethylrhodamine (TMRM) at 37° C. for 30 min. TMRM-labeled cells were analyzed by flow cytometry and their mitochondrial membrane potentials quantified using the Flowing Software 2 software package.

[2] = tested on: differentiated HL-60 cells; experiment: ER stress response and caspase-3 cleavage (Western blot); type: cell-based; details: 10 μM
Procedure: To determine whether the activation of the ER stress response is involved in curcumin-induced apoptosis, the levels of ER stress markers Bip and phosphorylated ERK, as well as the level of cleaved Caspase-3, a marker of apoptosis, were quantified by Western blot analysis of cells treated with 10 μM curcumin or encapsulated curcumin.
Briefly, treated cells were lysed in 100 μl of lysis buffer (1% Triton-X100, 150 mM NaCl, 10 mM Tris base, 1 mM EDTA, 1 mM EGTA, 50×protease inhibitor cocktail, pH 7.4). Lysed samples were subjected to 10% SDS-PAGE and transferred to membranes for Western Blot analysis using antibodies that bind to Bip, phospho-ERK, total ERK, cleaved caspase-3, and β-actin. Binding of these antibodies was visualized using commercially available enhanced chemiluminescence reagents. Chemiluminescent signals were quantified from images using ImageJ software.

H338Y-gp91^phox protein = experiment: Expression and maturation of H338Y-gp91^phox protein in neutrophils of treated transgenic mice (Western blot); type: in vivo, mouse; details: Cybb^C1024T transgenic Cybb^-/- mice, treated 24 hours, 20 mg/kg of curcumin
Procedure: The expression of H338Y-gp91^phox protein in neutrophils from the Cybb^C1024T transgenic Cybb^−/− mice was examined by SDS-PAGE and Western blotting with an anti-gp91^phox antibody. To isolate neutrophils, mice were injected intraperitoneally with 3 ml of 3% thioglycollate to elicit peritoneal neutrophils. Four hours later, the mice were sacrificed, and the peritoneal cavity was washed twice with 5 ml of Hanks buffered salt solution (HBSS) with 2 mM ethylene glycol tetraacetic acid to collect the elicited peritoneal neutrophils. Peritoneal neutrophils were then washed with PBS before use.
Curcumin-loaded PLGA nanoparticles with or without the ER-targeting KDEL peptide were tested for their effects on the expression and maturation of H338Y-gp91^phox protein in Cybb^C1024T transgenic Cybb^−/− mice. Briefly, mice were untreated or treated separately with free curcumin, curcumin-loaded PLGA nanoparticles, or curcumin-loaded ER-targeted PLGA nanoparticles for 24 hours in amounts corresponding to 20 mg/kg of curcumin. Neutrophils from the mice were elicited, isolated, and analyzed for expression of H338Y-gp91^phox protein as described above.
Statistical analyses were carried out with Prism software (GraphPad Software). […]

[3] = tested on: differentiated HL-60 cells; experiment: Curcumin-induced intracellular calcium release (Fluo-4AM); type: cell-based; details: 10 μM
Procedure: SERCA inhibitors such as curcumin cause an increase in intracellular calcium release from the ER. The ability of curcumin to induce calcium release was compared to that of PLGA nanoparticle-encapsulated curcumin. Differentiated HL-60 cells were seeded on 8-well slides in calcium-free medium and loaded with the intracellular calcium-sensitive indicator dye Fluo-4AM. Cells were treated with thapsigargin (positive control) or treated with 0.5, 1, or 10 μM curcumin, curcumin-loaded PLGA nanoparticles, or curcumin-loaded ER-targeted PLGA nanoparticles. Fluorescence intensity over time was measured in treated cells by confocal microscopy and analyzed using ImageJ software. The change in fluorescence intensity over time divided by the baseline fluorescence intensity prior to calcium addition (ΔF/FO) was plotted versus time.

[4] = tested on: differentiated HL-60 cells; experiment: Detection of apoptotic cells (Annexin V / 7-AAD); type: cell-based; details: 10 μM, 24 hours; FIG. 5B
Procedure: as §1
Cells treated as above with free or encapsulated curcumin were washed with ice-cold phosphate-buffered saline and stained with phycoerythrin-Annexin V and 7 amino-actinomycin D (7-AAD) at room temperature for 15 min. Annexin V binds to the surface of cells undergoing apoptosis, and 7-AAD only enters and stains apoptotic cells. Stained cells were subjected to flow cytometry analysis and the results analyzed using the Flowing Software 2 analysis package.

[5] = tested on: human peripheral blood hematopoietic cells (HSCs); experiment: Erythroblast differentiation (CD71 / CD235a flow cytometry); type: cell-based; details: FIG. 6A
Procedure: Erythroblast differentiation was measured in human peripheral blood hematopoietic cells (HSCs) treated with free curcumin or treated with curcumin-loaded nanoparticles as follows. Human CD34^+ HSCs were cultured in Iscove's modified Dulbecco medium containing 15% heat-inactivated fetal calf serum, 2 U/ml of recombinant human erythropoietin, 20 ng/ml of stem cell factor, and 10 ng/ml of interleukin-3 (IL-3). On day 4, the medium was replaced with fresh medium without IL-3 and the HSCs were cultured for another 5 days. The maturation of erythroblasts was analyzed by detecting the surface expression of CD71 and CD235a with flow cytometry.

[6] = tested on: differentiated HL-60 cells; experiment: Curcumin-induced extracellular calcium influx; type: cell-based
Procedure: Extracellular calcium influx, which is triggered by the depletion of ER calcium stores, was measured in cells treated with free curcumin or treated with curcumin-loaded nanoparticles as follows. Differentiated HL-60 cells were pretreated with free curcumin (10 μM), curcumin-loaded PLGA nanoparticles (0.5 μM), and curcumin-loaded ER-targeted PLGA nanoparticles (0.5 μM) at 37° C. overnight. Cells were washed with calcium-free HBSS, seeded on poly-lysine coated 8-well slides (ibidi, Planegg, Germany) at a density of 1×10^6 cells/ml, and incubated at 37° C. for 30 min. Cells were labeled with 2 μM of the calcium-sensitive fluorescent dye Fluo-4 AM and 1 μM of ER-tracker at 37° C. for 30 min. Labeled cells were treated with 1.25 mM CaCl2. Fluorescence images were captured by confocal microscopy every 10 s for 5 min. following the addition of CaCl2. Fluorescence intensities in these images were analyzed using ImageJ software. The change in fluorescence intensity over time divided by the baseline fluorescence intensity prior to calcium addition (ΔF/FO) was plotted versus time, and the rate of calcium level increase (ΔF/F/s) was derived from that plot. The overall calcium flux was calculated as the area under the curve (AUC) of a ΔF/F/s versus time curve.

Row | SMILES | mitochondrial membrane potential compared with control untreated cells [1] | ERK phosphorylation compared with untreated control cells ([2]; FIG. 5C center panel) | Bip expression compared with untreated control cells ([2]; FIG. 5C left panel) | expression of glycosylated H338Y-gp91^phox as compared to untreated mice (H338Y-gp91^phox protein) | rate of intracellular calcium increase, compared with lower concentrations of free curcumin [3] | level of calcium release, compared with 0.5 μM and 1 μM free curcumin ([3]; calcium-free medium, 40, 50 and 60 s after treatment) | number of apoptotic cells (Annexin V binding) [4] | percentages of more mature CD71^low CD235^high cells in treated HSCs [5] | calcium influx rate 20 s after treatment, compared with 0.5 μM curcumin-loaded nanoparticles ([6]; 10 μM) | time to calcium influx after addition ([6]; positive control, 1.25 mM extracellular calcium)
1 | COc1cc(/C=C/C(=O)CC(=O)/C=C/c2ccc(O)c(OC)c2)ccc1O [free curcumin, curcumin] | significant reduction | increased | increased | did not show any change | highest | significantly higher | significant increase | significantly enhanced | significantly higher | 
2 | C/C=C(/C)C(=O)O[C@H]1C(C)=C2[C@H]([C@@H]1OC(=O)CCCCCCC)[C@@](C)(OC(C)=O)C[C@H](OC(=O)CCC)[C@@]1(O)[C@H]2OC(=O)[C@@]1(C)O [Thapsigargin, thapsigargin] |  |  |  |  |  |  |  |  |  | ≤ 10 s
